In paper PMC8427973, “Regulation of the HTRA2 Protease Activity by an Inhibitory Antibody-Derived Peptide Ligand and the Influence on HTRA2-Specific Protein Interaction Networks in Retinal Tissues” (Biomedicines, 2021):

Tested on: recombinant 6xHis-tag HTRA2 and its protein interaction partners in homogenized porcine retina
Assay: Co-immunoprecipitation (Co-IP) of HTRA2 protein interaction partners, quantitative LC-MS/MS (iBAQ, volcano plot vs CTRL beads)
Set-up: species or system house swine (Sus scrofa)
Details: 2 µg HTRA2 + 10 µg compound, n = 3, vs CTRL beads
Description: The retina extraction and homogenization were performed as already described in previous publications. The use of animal by-products of house swine for scientific research purposes was approved by the Kreisverwaltung Mainz-Bingen in Germany (Identification Code: DE 07 315 0006 21, approved on 13 January 2014). In brief, retinal tissues were extracted from freshly removed porcine eye bulbs (house swine, Sus scrofa domestica Linnaeus, n = 30) provided by the local slaughterhouses (Landmetzgerei Harth, Stadecken-Elsheim, Germany). Afterwards, the retinal tissues were homogenized in 2 mL screw cap microtubes filled with 1.4/2.8 mm ceramic beads and 1 mL Tissue Protein Extraction Reagent (T-PER, Thermo Fisher Scientific, Rockford, IL, USA) using a Percellys® 24 homogenizer (VWR International GmbH, Darmstadt, Germany). The homogenized retinal samples were then centrifuged at 14,000× g for 15 min at 4 °C. The protein-containing supernatant was exchanged in a 100 µL phosphate-buffered saline (PBS) using a 3 kDa Amicon® filtration unit (Millipore, Billerica, MA, USA) and, prior to this, was extensively washed in order to completely remove traces of the T-PER buffer. Afterwards, the samples were pooled and the protein concentration was determined using a Pierce Bicinchoninic Acid (BCA) Protein Assay Kit (Thermo Fisher Scientific, Rockford, IL, USA) according to the manufacturer’s protocol, which provided 5 mg aliquots for further analysis.
The recombinant protein HTRA2 with a C-terminal 6xHis-tag motif (Novoprotein Scientific INC., Summit, NJ, USA) and 40 μL HisPurTM Ni-NTA magnetic beads (Thermo Fisher Scientific, Rockford, IL, USA) were spiked into 5 mg homogenized porcine retina. The experiment comprised of four groups: control homogenate (CTRL group), homogenate with 2 μg recombinant HTRA2 (HTRA2 group), homogenate with 2 μg recombinant HTRA2 and 10 μg UCF-101 (UCF-101 group), and homogenate with 2 μg recombinant HTRA2 and 10 μg synthetic CDR peptide (CDR group). The Co-IP of the recombinant HTRA2 and the enrichment of the respective interaction partners was performed with three independent biological replicates for each group (CTRL, HTRA2, UCF-101, and CDR group). After incubation at 4 °C overnight, the 6xHis-tagged protein HTRA2 with the bounded protein interaction partners (co-immunoprecipitation) was isolated with the previously added HisPurTM Ni-NTA magnetic beads (Thermo Fisher Scientific, Rockford, IL, USA) using a magnetic stand. Each bead group was washed twice with 400 μL PBS and the bounded HTRA2 including the protein interaction partners were eluted by pH shift. The protein concentration of each eluate fraction was determined as described above. Afterwards, 50 μg of each eluate fraction was evaporated using a speed vacuum concentrator (SpeedVac) (Eppendorf, Hamburg, Germany) for 45 min at 30 °C and was stored afterwards at −20 °C.
The protein eluate fractions of each group (50 μg; n = 3 biological replicates per group) were separated by 1D SDS PAGE on 10-well NuPAGE® 12% Bis-Tris gels using NuPAGE™ MOPS SDS Running Buffer 20X (Thermo Fisher Scientific, Rockford, IL, USA). The 1D SDS PAGE was performed with the XCell SureLock^TM Mini-Cell Electrophoresis System (Thermo Fisher Scientific, Rockford, IL, USA) under denatured and reduced conditions, as already described in previous publications. The protein separation was performed for 2 h at 4 °C using 150 V, and then the gels were stained with the Novex Colloidal Blue Staining Kit (Thermo Fisher Scientific, Rockford, IL, USA) according to the manufacturer’s protocol. The next day, the gels were destained overnight and scanned using a DGP-9042 scanner (Brother Industries, Nagoya, Japan) at 600 dpi. In-gel trypsin digestion was performed as already described in previous publications. In brief, each protein lane was divided into 17 slices and was subsequently cut into small pieces. […]

ASGYTFTNYGLSWVR [CDR, synthetic peptide encoding a complementary-determining region 1 (CDR1) of polyclonal antibody molecules]
FGF2 (Fibroblast growth factor 2) as significant interaction partner of HTRA2 (HTRA2 alone: -): √ (Proteins fulfilled filtering criteria (p < 0.01; log2 fold change > 1.5))
FTH1 (Ferritin heavy chain) as significant interaction partner of HTRA2 (HTRA2 alone: -): √ (Proteins fulfilled filtering criteria (p < 0.01; log2 fold change > 1.5))
GTF2F2 (General transcription factor IIF subunit 2) as significant interaction partner of HTRA2 (HTRA2 alone: -): - (Proteins failed to fulfill the filtering criteria (p > 0.01; log2 fold change < 1.5))
NAPG (Gamma-soluble NSF attachment protein) as significant interaction partner of HTRA2 (HTRA2 alone: -): √ (Proteins fulfilled filtering criteria (p < 0.01; log2 fold change > 1.5))
PDZD11 (PDZ domain-containing protein 11) as significant interaction partner of HTRA2 (HTRA2 alone: -): √ (Proteins fulfilled filtering criteria (p < 0.01; log2 fold change > 1.5))
PGRMC1 (Membrane-associated progesterone receptor component 1) as significant interaction partner of HTRA2 (HTRA2 alone: -): - (Proteins failed to fulfill the filtering criteria (p > 0.01; log2 fold change < 1.5))
PLRG1 (Pleiotropic regulator 1) as significant interaction partner of HTRA2 (HTRA2 alone: -): √ (Proteins fulfilled filtering criteria (p < 0.01; log2 fold change > 1.5))
POLR2E (DNA-directed RNA polymerases I, II, and III subunit RPABC1) as significant interaction partner of HTRA2 (HTRA2 alone: -): √ (Proteins fulfilled filtering criteria (p < 0.01; log2 fold change > 1.5))
PPA1 (Inorganic pyrophosphatase) as significant interaction partner of HTRA2 (HTRA2 alone: -): - (Proteins failed to fulfill the filtering criteria (p > 0.01; log2 fold change < 1.5))
SFRP1 (Secreted frizzled-related protein 1) as significant interaction partner of HTRA2 (HTRA2 alone: -): √ (Proteins fulfilled filtering criteria (p < 0.01; log2 fold change > 1.5))
TUBA1C (Tubulin alpha-1C chain) as significant interaction partner of HTRA2 (HTRA2 alone: -): √ (Proteins fulfilled filtering criteria (p < 0.01; log2 fold change > 1.5))
UBE2N (Ubiquitin-conjugating enzyme E2 N) as significant interaction partner of HTRA2 (HTRA2 alone: -): √ (Proteins fulfilled filtering criteria (p < 0.01; log2 fold change > 1.5))
CDC42 (Cell division control protein 42 homolog) as significant interaction partner of HTRA2 (HTRA2 alone: n.d.): √ (Proteins fulfilled filtering criteria (p < 0.01; log2 fold change > 1.5))
COPE (Coatomer subunit epsilon) as significant interaction partner of HTRA2 (HTRA2 alone: n.d.): - (Proteins failed to fulfill the filtering criteria (p > 0.01; log2 fold change < 1.5))
MRPL2 (39S ribosomal protein L2, mitochondrial) as significant interaction partner of HTRA2 (HTRA2 alone: n.d.): √ (Proteins fulfilled filtering criteria (p < 0.01; log2 fold change > 1.5))
SNX3 (Sorting nexin-3) as significant interaction partner of HTRA2 (HTRA2 alone: n.d.): √ (Proteins fulfilled filtering criteria (p < 0.01; log2 fold change > 1.5))
SOWAHA (Ankyrin repeat domain-containing protein SOWAHA) as significant interaction partner of HTRA2 (HTRA2 alone: n.d.): √ (Proteins fulfilled filtering criteria (p < 0.01; log2 fold change > 1.5))
TIMM13 (Mitochondrial import inner membrane translocase subunit Tim13) as significant interaction partner of HTRA2 (HTRA2 alone: n.d.): √ (Proteins fulfilled filtering criteria (p < 0.01; log2 fold change > 1.5))
TUBB8 (Tubulin beta-8 chain) as significant interaction partner of HTRA2 (HTRA2 alone: n.d.): √ (Proteins fulfilled filtering criteria (p < 0.01; log2 fold change > 1.5))
AGPS (Alkyldihydroxyacetonephosphate synthase, peroxisomal) as significant interaction partner of HTRA2 (HTRA2 alone: √): √ (Proteins fulfilled filtering criteria (p < 0.01; log2 fold change > 1.5))
ANK2 (Ankyrin-2) as significant interaction partner of HTRA2 (HTRA2 alone: √): - (Proteins failed to fulfill the filtering criteria (p > 0.01; log2 fold change < 1.5))
AP2A1 (AP-2 complex subunit alpha-1) as significant interaction partner of HTRA2 (HTRA2 alone: √): - (Proteins failed to fulfill the filtering criteria (p > 0.01; log2 fold change < 1.5))
AP3D1 (AP-3 complex subunit delta-1) as significant interaction partner of HTRA2 (HTRA2 alone: √): - (Proteins failed to fulfill the filtering criteria (p > 0.01; log2 fold change < 1.5))
AUH (Methylglutaconyl-CoA hydratase, mitochondrial) as significant interaction partner of HTRA2 (HTRA2 alone: √): √ (Proteins fulfilled filtering criteria (p < 0.01; log2 fold change > 1.5))
CS (Citrate synthase, mitochondrial) as significant interaction partner of HTRA2 (HTRA2 alone: √): - (Proteins failed to fulfill the filtering criteria (p > 0.01; log2 fold change < 1.5))
CSTB (Cystatin-B) as significant interaction partner of HTRA2 (HTRA2 alone: √): √ (Proteins fulfilled filtering criteria (p < 0.01; log2 fold change > 1.5))
DNAJA3 (DnaJ homolog subfamily A member 3, mitochondrial) as significant interaction partner of HTRA2 (HTRA2 alone: √): - (Proteins failed to fulfill the filtering criteria (p > 0.01; log2 fold change < 1.5))
DTD1 (D-aminoacyl-tRNA deacylase 1) as significant interaction partner of HTRA2 (HTRA2 alone: √): - (Proteins failed to fulfill the filtering criteria (p > 0.01; log2 fold change < 1.5))
EIF2S3 (Eukaryotic translation initiation factor 2 subunit 3) as significant interaction partner of HTRA2 (HTRA2 alone: √): - (Proteins failed to fulfill the filtering criteria (p > 0.01; log2 fold change < 1.5))
FAM30A (Putative uncharacterized protein FAM30A) as significant interaction partner of HTRA2 (HTRA2 alone: √): - (Proteins failed to fulfill the filtering criteria (p > 0.01; log2 fold change < 1.5))
FLNA (Filamin-A) as significant interaction partner of HTRA2 (HTRA2 alone: √): - (Proteins failed to fulfill the filtering criteria (p > 0.01; log2 fold change < 1.5))
GDI1 (Rab GDP dissociation inhibitor alpha) as significant interaction partner of HTRA2 (HTRA2 alone: √): √ (Proteins fulfilled filtering criteria (p < 0.01; log2 fold change > 1.5))
GLO1 (Lactoylglutathione lyase) as significant interaction partner of HTRA2 (HTRA2 alone: √): √ (Proteins fulfilled filtering criteria (p < 0.01; log2 fold change > 1.5))
GNL1 (Guanine nucleotide-binding protein-like 1) as significant interaction partner of HTRA2 (HTRA2 alone: √): - (Proteins failed to fulfill the filtering criteria (p > 0.01; log2 fold change < 1.5))
HAGH (Hydroxyacylglutathione hydrolase, mitochondrial) as significant interaction partner of HTRA2 (HTRA2 alone: √): - (Proteins failed to fulfill the filtering criteria (p > 0.01; log2 fold change < 1.5))
HTRA2 (Serine protease HTRA2, mitochondrial; target protein) enriched (HTRA2 alone: √): √ (Proteins fulfilled filtering criteria (p < 0.01; log2 fold change > 1.5))
HYOU1 (Hypoxia up-regulated protein 1) as significant interaction partner of HTRA2 (HTRA2 alone: √): - (Proteins failed to fulfill the filtering criteria (p > 0.01; log2 fold change < 1.5))
MCTS1 (Malignant T-cell-amplified sequence 1) as significant interaction partner of HTRA2 (HTRA2 alone: √): √ (Proteins fulfilled filtering criteria (p < 0.01; log2 fold change > 1.5))
ME2 (NAD-dependent malic enzyme, mitochondrial) as significant interaction partner of HTRA2 (HTRA2 alone: √): - (Proteins failed to fulfill the filtering criteria (p > 0.01; log2 fold change < 1.5))
NCKAP1 (Nck-associated protein 1) as significant interaction partner of HTRA2 (HTRA2 alone: √): - (Proteins failed to fulfill the filtering criteria (p > 0.01; log2 fold change < 1.5))
PACS1 (Phosphofurin acidic cluster sorting protein 1) as significant interaction partner of HTRA2 (HTRA2 alone: √): - (Proteins failed to fulfill the filtering criteria (p > 0.01; log2 fold change < 1.5))
POTEE (POTE ankyrin domain family member E) as significant interaction partner of HTRA2 (HTRA2 alone: √): - (Proteins failed to fulfill the filtering criteria (p > 0.01; log2 fold change < 1.5))
PSMC1 (26S proteasome regulatory subunit 4) as significant interaction partner of HTRA2 (HTRA2 alone: √): - (Proteins failed to fulfill the filtering criteria (p > 0.01; log2 fold change < 1.5))
PTGES3 (Prostaglandin E synthase 3) as significant interaction partner of HTRA2 (HTRA2 alone: √): √ (Proteins fulfilled filtering criteria (p < 0.01; log2 fold change > 1.5))
RPS12 (40S ribosomal protein S12) as significant interaction partner of HTRA2 (HTRA2 alone: √): - (Proteins failed to fulfill the filtering criteria (p > 0.01; log2 fold change < 1.5))
SPTBN1 (Spectrin beta chain, non-erythrocytic 1) as significant interaction partner of HTRA2 (HTRA2 alone: √): - (Proteins failed to fulfill the filtering criteria (p > 0.01; log2 fold change < 1.5))
UBE2V1 (Ubiquitin-conjugating enzyme E2 variant 1) as significant interaction partner of HTRA2 (HTRA2 alone: √): √ (Proteins fulfilled filtering criteria (p < 0.01; log2 fold change > 1.5))
